Legend:
[1] = biological target: dephosphorylated FGFR1 (SEQ ID NO: 1, amino acids 458 to 765) (Homo sapiens (Human), UniProt P11362); test: FGFR enzyme binding assay (HTRF tracer displacement), FGFR1; conditions: 5 nM dephosphorylated FGFR1, average of multiple determinations if made
How it was run: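 Compounds were tested for displacement of a tracer from human FGFR kinase in a time-resolved FRET binding format. After 60 minutes at 22° C, signal was read at two wavelengths and converted to percent of control, normalised between untreated wells and 1 μM reference inhibitor.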

[2] = biological target: recombinant human FGFR1 catalytic domain (amino acids 308-731) (Homo sapiens (Human), UniProt P11362); test: FGFR1 enzyme activity assay (LanthaScreen TR-FRET); assay type: biochemical; conditions: 20 min incubation at 22° C., average of multiple determinations if made, read-out: FGFR1 Enz FRET IC50
How it was run: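 His-tagged FGFR1 kinase domain with 100 nM Alexa Fluor 647-poly-GT peptide and ATP in pH 7.5 HEPES/MgCl2 buffer with 2% DMSO, 20 min at 22 °C. Quenched with EDTA plus 2 nM Eu-PY20 antibody and read after 60 min. IC50 comes from a 4-parameter fit of percent of control.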

[3] = biological target: recombinant human FGFR2 cytoplasmic domain (amino acids 403-822) (Homo sapiens (Human), UniProt P21802); test: FGFR2 enzyme activity assay (LanthaScreen TR-FRET); assay type: biochemical; conditions: 15 μM ATP, 20 min incubation at 22° C., average of multiple determinations if made, read-out: FGFR2 Enz FRET IC50
How it was run: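 His-tagged FGFR2 cytoplasmic domain ([…]) with 100 nM Alexa Fluor 647-poly-GT peptide and 15 μM ATP in HEPES/MgCl2/Triton buffer, pH 7.5, 2% DMSO, 20 min at 22 °C. EDTA-quenched, Eu-PY20 antibody added, TR-FRET read after 60 min.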

[4] = biological target: FGFR3 (SEQ ID NO: 5, amino acids 449-759) (Homo sapiens (Human), UniProt P22607); test: LC/MS FGFR3 kobs assay (covalent protein modification); assay type: binding; conditions: 500 nM FGFR3, 3 μM compound
How it was run: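 Intact-mass LC/MS tracks covalent labeling of the kinase domain over time after acid quench (0.4% formic acid). Unmodified fraction, scaled to DMSO controls, is fitted as exponential decay; kobs is reported, averaged when measured more than once.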

[5] = biological target: HEK-293 cells transfected with dox-inducible human wild type FGFR1 (Homo sapiens (Human), UniProt P11362); test: FGFR1 pERK cell assay; assay type: cell-based; conditions: HEK-293 dox-inducible FGFR1, 1 hour compound, 100 ng/ml FGF-acidic; maximum concentration 5 μM
How it was run: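 In HEK-293 cells with dox-induced human wild-type FGFR1, compounds (1:3 dilutions, top 5 μM final) were applied 1 h at 37°C before 5 min stimulation with 100 ng/ml FGF-acidic. Phospho-ERK1/2 measured by MSD sandwich immunoassay; IC50 from 4-parameter fit of POC versus vehicle and control compound.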

Chain of FGFR3 (SEQ ID NO: 5, amino acids 449-759) (P22607 449-759): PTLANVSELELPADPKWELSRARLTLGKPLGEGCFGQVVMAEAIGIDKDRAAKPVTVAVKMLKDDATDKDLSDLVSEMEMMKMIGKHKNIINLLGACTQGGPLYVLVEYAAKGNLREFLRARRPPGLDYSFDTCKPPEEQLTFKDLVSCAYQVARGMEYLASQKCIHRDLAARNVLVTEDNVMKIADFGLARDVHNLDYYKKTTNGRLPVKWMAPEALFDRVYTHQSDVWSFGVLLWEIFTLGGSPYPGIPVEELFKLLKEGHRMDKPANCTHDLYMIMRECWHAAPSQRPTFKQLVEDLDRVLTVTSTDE
Chain of recombinant human FGFR2 cytoplasmic domain (amino acids 403-822) (P21802 402-821): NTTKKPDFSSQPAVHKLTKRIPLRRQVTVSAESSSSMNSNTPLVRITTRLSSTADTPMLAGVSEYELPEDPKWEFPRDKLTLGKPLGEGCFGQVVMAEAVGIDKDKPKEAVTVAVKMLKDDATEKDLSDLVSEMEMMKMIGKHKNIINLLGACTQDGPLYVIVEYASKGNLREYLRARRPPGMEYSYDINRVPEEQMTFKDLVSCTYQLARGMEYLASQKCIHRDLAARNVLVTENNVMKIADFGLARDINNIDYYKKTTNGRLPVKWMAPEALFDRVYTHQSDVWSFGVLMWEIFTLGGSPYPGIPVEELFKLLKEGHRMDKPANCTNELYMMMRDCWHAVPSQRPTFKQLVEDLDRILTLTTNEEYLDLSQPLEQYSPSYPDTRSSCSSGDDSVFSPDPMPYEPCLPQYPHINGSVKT
Chain of HEK-293 cells transfected with dox-inducible human wild type FGFR1 (P11362 22-822): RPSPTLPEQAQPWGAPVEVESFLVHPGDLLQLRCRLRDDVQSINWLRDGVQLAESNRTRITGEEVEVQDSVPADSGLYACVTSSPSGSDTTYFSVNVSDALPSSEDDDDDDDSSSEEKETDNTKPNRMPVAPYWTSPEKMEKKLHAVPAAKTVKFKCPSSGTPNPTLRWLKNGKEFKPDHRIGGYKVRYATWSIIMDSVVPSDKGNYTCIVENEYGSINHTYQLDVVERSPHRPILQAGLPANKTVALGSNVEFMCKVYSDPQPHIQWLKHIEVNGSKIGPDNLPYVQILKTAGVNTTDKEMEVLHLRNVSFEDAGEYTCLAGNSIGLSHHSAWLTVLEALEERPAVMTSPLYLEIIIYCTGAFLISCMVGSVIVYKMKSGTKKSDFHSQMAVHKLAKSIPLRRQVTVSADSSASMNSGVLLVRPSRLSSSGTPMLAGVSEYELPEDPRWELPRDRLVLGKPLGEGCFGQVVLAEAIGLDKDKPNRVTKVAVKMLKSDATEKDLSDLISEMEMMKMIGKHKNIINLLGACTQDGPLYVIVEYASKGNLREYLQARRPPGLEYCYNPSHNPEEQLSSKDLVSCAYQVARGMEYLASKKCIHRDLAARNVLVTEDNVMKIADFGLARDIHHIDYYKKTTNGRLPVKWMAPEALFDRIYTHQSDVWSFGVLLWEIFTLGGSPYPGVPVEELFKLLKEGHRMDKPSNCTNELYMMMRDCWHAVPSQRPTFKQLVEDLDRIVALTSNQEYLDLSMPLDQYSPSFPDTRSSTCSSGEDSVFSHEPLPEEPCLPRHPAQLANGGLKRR
Chain of recombinant human FGFR1 catalytic domain (amino acids 308-731) (P11362 other isoform, or with tags, fused parts or gaps): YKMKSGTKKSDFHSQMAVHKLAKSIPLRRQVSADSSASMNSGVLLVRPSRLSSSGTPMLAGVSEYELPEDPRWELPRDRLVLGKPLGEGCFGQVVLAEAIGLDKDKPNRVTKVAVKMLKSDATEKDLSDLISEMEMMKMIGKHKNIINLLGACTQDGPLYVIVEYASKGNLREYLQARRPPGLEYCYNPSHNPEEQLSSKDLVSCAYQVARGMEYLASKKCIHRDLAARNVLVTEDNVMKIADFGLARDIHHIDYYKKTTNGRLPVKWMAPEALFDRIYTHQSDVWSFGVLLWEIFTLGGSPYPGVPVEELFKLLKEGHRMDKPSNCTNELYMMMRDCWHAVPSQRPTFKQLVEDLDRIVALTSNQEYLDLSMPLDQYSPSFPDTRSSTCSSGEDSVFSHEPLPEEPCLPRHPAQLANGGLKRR
Chain of dephosphorylated FGFR1 (SEQ ID NO: 1, amino acids 458 to 765) (P11362 458-765): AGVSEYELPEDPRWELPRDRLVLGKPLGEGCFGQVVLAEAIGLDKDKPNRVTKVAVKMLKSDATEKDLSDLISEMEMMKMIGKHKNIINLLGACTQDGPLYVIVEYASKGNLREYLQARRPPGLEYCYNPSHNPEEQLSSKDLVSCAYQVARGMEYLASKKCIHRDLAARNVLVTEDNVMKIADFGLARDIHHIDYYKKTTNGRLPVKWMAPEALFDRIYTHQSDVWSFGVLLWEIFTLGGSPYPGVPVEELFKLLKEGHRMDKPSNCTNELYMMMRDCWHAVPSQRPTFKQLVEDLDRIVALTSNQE

| IC50 [1] [nM] | IC50 [2] [nM] | IC50 [3] [nM] | FGFR3 Enz kobs [4] [min⁻¹] | IC50 [5] [nM] | SMILES |
| --- | --- | --- | --- | --- | --- |
| 108 | 68 | 9 | 0.01688 | 1350 | C=CC(=O)N1CC(C(=O)N2C[C@H]3C[C@@H]2CN3c2ccc(-c3cc(OC)c4c(C#N)cnn4c3)cn2)C1 [Example 107, 6-(6-((1R,4R)-5-(1-acryloylazetidine-3-carbonyl)-2,5-diazabicyclo[2.2.1]heptan-2-yl)pyridin-3-yl)-4-methoxypyrazolo[1,5-a]pyridine-3-carbonitrile] |
| 608 | 148 | 50 | 0.06456 | 502 | COc1cc(-c2ccc(N3CCN(C(=O)C4(F)CN(C(=O)/C=C/CN(C)C)C4)CC3)nc2C)cn2ncc(C#N)c12 [Example 168, (E)-6-(6-(4-(1-(4-(dimethylamino)but-2-enoyl)-3-fluoroazetidine-3-carbonyl)piperazin-1-yl)-2-methylpyridin-3-yl)-4-methoxypyrazolo [1,5-a]pyridine-3-carbonitrile] |
| 144 | 12 | 4 | 0.04009 | 288 | C=CC(=O)N1CC(C(=O)N2CCN(c3ccc(-c4cc(OC)c5c(C#N)cnn5c4)cn3)CC2)C1 [Example 111, 6-(6-(4-(1-acryloylazetidine-3-carbonyl)piperazin-1-yl)pyridin-3-yl)-4-methoxypyrazolo[1,5-a]pyridine-3-carbonitrile] |
| 336 | 111 | 19 | 0.0804 | 888 | COc1cc(-c2cnn(C3CCN(C(=O)C4(OC)CN(C(=O)/C=C/CN(C)C)C4)CC3)c2C)cn2ncc(Cl)c12 [Example 171, (E)-1-(3-(4-(4-(3-chloro-4-methoxypyrazolo [1,5-a]pyridin-6-yl)-5-methyl-1H-pyrazol-1-yl)piperidine-1-carbonyl)-3-methoxyazetidin-1-yl)-4-(dimethylamino)but-2-en-1-one] |
| 1140 | 2210 | 1170 | 0.03573 | 1650 | COc1cc(-c2nn(C3CCN(C(=O)C4(F)CN(C(=O)/C=C/CN(C)C)C4)CC3)nc2C)cn2ncc(C#N)c12 [Example 163, (E)-6-(2-(1-(1-(4-(dimethylamino)but-2-enoyl)-3-fluoroazetidine-3-carbonyl)piperidin-4-yl)-5-methyl-2H-1,2,3-triazol-4-yl)-4-methoxypyrazolo [1,5-a]pyridine-3-carbonitrile] |
| 32 | 9 | 2 | 0.02709 | 196 | COc1cc(-c2cnn(C3CCN(C(=O)C4CN(C(=O)/C=C/CCl)C4)CC3)c2)cn2ncc(C#N)c12 [Example 181, (E)-6-(1-(1-(1-(4-chlorobut-2-enoyl)azetidine-3-carbonyl)piperidin-4-yl)-1H-pyrazol-4-yl)-4-methoxypyrazolo[1,5-a]pyridine-3-carbonitrile] |
| 22 | 15 | 3 | 0.189 | 1600 | COc1cc(-c2cnn(C3CCN(C(=O)C4CN(C(=O)C#CCO)C4)CC3)c2)cn2ncc(C#N)c12 [Example 179, 6-(1-(1-(1-(4-hydroxybut-2-ynoyl)azetidine-3-carbonyl)piperidin-4-yl)-1H-pyrazol-4-yl)-4-methoxypyrazolo[1,5-a]pyridine-3-carbonitrile] |
| 40 | 12 | 3 | 0.01781 | 3630 | COc1cc(-c2cnn(C3CCN(C(=O)C4CN(C(=O)/C=C/CN5CC[C@H](F)C5)C4)CC3)c2)cn2ncc(C#N)c12 [Example 182, (S,E)-6-(1-(1-(1-(4-(3-fluoropyrrolidin-1-yl)but-2-enoyl)azetidine-3-carbonyl)piperidin-4-yl)-1H-pyrazol-4-yl)-4-methoxypyrazolo[1,5-a]pyridine-3-carbonitrile] |
| 571 | 248 | 179 | 0.08254 | 3280 | COc1cc(-c2cnn(C3CN(C(=O)C4(F)CN(C(=O)/C=C/CN(C)C)C4)C3)c2C)cn2ncc(C#N)c12 [Example 160, (E)-6-(1-(1-(1-(4-(dimethylamino)but-2-enoyl)-3-fluoroazetidine-3-carbonyl)azetidin-3-yl)-5-methyl-1H-pyrazol-4-yl)-4-methoxypyrazolo [1,5-a]pyridine-3-carbonitrile] |
| 49 | 12 | 4 | 0.00097 | 989 | COc1cc(-c2cnn(C3CCN(C(=O)C4CN(C(=O)C5=CCC5)C4)CC3)c2)cn2ncc(C#N)c12 [Example 137, 6-(1-(1-(1-(cyclobut-1-ene-1-carbonyl)azetidine-3-carbonyl)piperidin-4-yl)-1H-pyrazol-4-yl)-4-methoxypyrazolo[1,5-a]pyridine-3-carbonitrile] |
| 27 | 7 | 3 | 0.3446 | 116 | C#CC(=O)N1CC(C(=O)N2CCC(n3cc(-c4cc(OC)c5c(C#N)cnn5c4)cn3)CC2)C1 [Example 138, 4-methoxy-6-(1-(1-(1-propioloylazetidine-3-carbonyl)piperidin-4-yl)-1H-pyrazol-4-yl)pyrazolo[1,5-a]pyridine-3-carbonitrile] |
| 675 | 842 | 324 | 0.04202 | 1070 | C=CC(=O)N1CC(OC)(C(=O)N2CCC(n3nc(C)c(-c4cc(OC)c5c(C#N)cnn5c4)c3C)CC2)C1 [Example 95, 6-(1-(1-(1-acryloyl-3-methoxyazetidine-3-carbonyl)piperidin-4-yl)-3,5-dimethyl-1H-pyrazol-4-yl)-4-methoxypyrazolo[1,5-a]pyridine-3-carbonitrile] |
| 168 | 77 | 30 | 0.1008 | 1830 | COc1cc(-c2cnn(C3CCN(C(=O)C4(OC)CN(C(=O)/C=C/CN(C)C)C4)CC3)c2C)cn2ncc(C#N)c12 [Example 158, (E)-6-(1-(1-(1-(4-(dimethylamino)but-2-enoyl)-3-methoxyazetidine-3-carbonyl)piperidin-4-yl)-5-methyl-1H-pyrazol-4-yl)-4-methoxypyrazolo [1,5-a]pyridine-3-carbonitrile] |
| 55 | 20 | 7 | 0.01344 | 116 | C=CC(=O)N1CC(CN2C[C@H]3C[C@@H]2CN3c2ccc(-c3cc(OC)c4c(C#N)cnn4c3)cn2)C1 [Example 108, 6-(6-((1R,4R)-5-((1-acryloylazetidin-3-yl)methyl)-2,5-diazabicyclo[2.2.1]heptan-2-yl)pyridin-3-yl)-4-methoxypyrazolo[1,5-a]pyridine-3-carbonitrile] |
| 1620 | 384 | 155 | 0.03335 | 2100 | C=CC(=O)N1CC(F)(C(=O)N2CCC(n3ncc(-c4cc(OC)c5c(C#N)cnn5c4)c3CC)CC2)C1 [Example 96, 6-(1-(1-(1-acryloyl-3-fluoroazetidine-3-carbonyl)piperidin-4-yl)-5-ethyl-1H-pyrazol-4-yl)-4-methoxypyrazolo[1,5-a]pyridine-3-carbonitrile] |

| SMILES | IC50 [1] [nM] | IC50 [2] [nM] | IC50 [3] [nM] | FGFR3 Enz kobs [4] [min⁻¹] | IC50 [5] [nM] |
| --- | --- | --- | --- | --- | --- |
| C=CC(=O)N1CC(C(=O)N2CC3CC(C2)N3c2ccc(-c3cc(OC)c4c(C#N)cnn4c3)cn2)C1 [Example 105, 6-(6-(3-(1-acryloylazetidine-3-carbonyl)-3,6-diazabicyclo[3.1.1]heptan-6-yl)pyridin-3-yl)-4-methoxypyrazolo[1,5-a]pyridine-3-carbonitrile] | 435 | 193 | 42 | 0.00147 | 3960 |

Source: patent publication US12180207B2 (ARRAY BIOPHARMA INC., priority 2018, dated 2024)
